Experimental data: patent US12478628B2, “Germ cell nuclear factor ligands and methods of use thereof” (Saint Louis University, priority 2020, dated 2025)
Numbering of substitutions follows the chain as printed.

Key:
[1] = biological target: T1, GCNF LBD with NCoR ID1 corepressor peptide (Homo sapiens, UniProt Q15406); test: FP ligand titration assay, NCoR ID1 peptide recruitment; type: biochemical; details: 20 μM GCNF LBD
T1 construct: Human GCNF (NR6A1) LBD (residues 248-480); made in house; host or cells: E. coli BL(21) DE3
T1 sequence (Q15406 248-480): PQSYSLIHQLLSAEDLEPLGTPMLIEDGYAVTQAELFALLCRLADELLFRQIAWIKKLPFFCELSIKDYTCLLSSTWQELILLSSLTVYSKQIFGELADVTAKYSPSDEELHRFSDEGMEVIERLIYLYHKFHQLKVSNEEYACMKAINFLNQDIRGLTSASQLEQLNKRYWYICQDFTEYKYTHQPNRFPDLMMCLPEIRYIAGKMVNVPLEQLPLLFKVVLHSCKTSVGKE
Procedure: FP Assay. Fluorescence polarization (FP) assays were performed in triplicate on a 384-well Corning 3820 black opaque plate using a Biotek Synergy Neo2 HTS multimode microplate reader at excitation and emission wavelengths of 485 nm and 538 nm, respectively. Data were analyzed and plotted using GraphPad Prism as mean±SEM.
For the FP ligand titration assay, the aforementioned N-terminus fluorescein-tagged corepressor peptides were diluted to 500 nM from a 100 μM DMSO stock in the presence of 20 μM GCNF LBD and ligand concentration points 30, 20, 13, 9, 6, 4, 2.6, 1.7 and 0 μM in assay buffer containing 50 mM HEPES (pH 7.5), 50 mM KCl, 5 mM TCEP, 0.5 mM EDTA and 0.005% Tween20. The relative polarization was plotted against log of ligand concentration (μM) and the half maximal effective concentration (EC50) values were derived via sigmoidal fit.

[2] = biological target: T2, SF-1 (NR5A1) LBD (Homo sapiens, UniProt Q13285); test: DSF specificity assay, SF-1; type: binding
T2 construct: human SF-1 LBD (residues 219-461); hexahistidine tag with 3C protease site; made in house; host or cells: E. coli BL(21) DE3
Procedure: (§1) Protein Expression and Purification. Human GCNF (NR6A1) LBD (residues 248-480) and mutants F284A/F361A, human LRH-1 (NR5A2) LBD (residues 291-541), human RXRα LBD (residues 223-462), human COUP-TF I LBD (residues 184-410) and human SF-1 LBD (residues 219-461) were subcloned in pET45b(+) plasmid (Novagen) were expressed in E. coli BL(21) DE3 cells in terrific broth with 0.1 mg/mL ampicillin as 3C protease-cleavable hexahistidine-tagged fusion proteins. The bacterial culture was grown at 37° C. to an optical density of 0.8 to 1.0 at 600 nm. Protein expression was induced by adding 1 mM IPTG and was allowed to proceed for 14 h at 22° C. […]
(§2) DSF Assay. […] A total of 450 compounds (Life Chemicals) previously selected from a nuclear-receptor-biased library targeting REV-ERB were analyzed. Thermal stability was assessed on a Quantstudio 6 instrument (Biosystems) by ramping the temperature from 25° C. to 95° C. at 0.05° C./s and protein melt shifts were subsequently quantified by Boltzmann-derived melting temperature (Tm) using the Protein Thermal Shift (ThermoFisher) software. […]

[3] = test system: BeWo human choriocarcinoma cells; test: qPCR of GCNF target gene expression in BeWo cells; type: cell-based; details: 20 μM, 24 h
Procedure: BeWo cells were cultured in DMEM-F12 medium (Gibco) with 10% FBS (Gembio) and plated at 75,000 cells per well in 12-well plates (Corning). 24-hours after plating, cells were treated with either DMSO, ligand 34 or ligand 80 (20 μM) at 4 wells/group. RNA was isolated 24-hours after drug treatment and cDNA was synthesized for the QPCR assays using Bio-Rad iScript cDNA synthesis kit per manufacturer's protocol. Expression was analyzed by QPCR using a custom array plate (Bio-Rad PrimePCR) per manufacturer's protocol; n=4 was used for cell-based assays and plotted as mean±SEM.

[4] = biological target: T3, GCNF LBD F361A (Homo sapiens, UniProt Q15406, F361A); test: DSF of GCNF LBD mutant F361A; type: binding; details: 20 μM ligand
T3 construct: Human GCNF (NR6A1) LBD (residues 248-480) and mutants F284A/F361A; hexahistidine tag with 3C protease site; made in house; host or cells: E. coli BL(21) DE3
T3 sequence (Q15406 248-480 F361A): T1 sequence (Q15406 248-480) with F114A
Procedure: as §1, §2

T2 sequence (Q13285 219-461): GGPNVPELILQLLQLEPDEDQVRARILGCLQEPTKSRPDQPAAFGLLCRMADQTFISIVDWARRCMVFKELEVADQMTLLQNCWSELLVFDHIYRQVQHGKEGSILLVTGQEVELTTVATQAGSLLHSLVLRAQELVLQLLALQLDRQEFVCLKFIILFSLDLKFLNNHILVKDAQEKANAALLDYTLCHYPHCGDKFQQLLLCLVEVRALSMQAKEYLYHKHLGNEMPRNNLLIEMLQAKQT

| SMILES | effect on recruitment of NCoR ID1 to GCNF [1] | change of Tm of SF-1 LBD [2] | GCNF gene expression [3] | NR5A1 (SF-1) expression [3] | NR5A2 (LRH-1) expression [3] | Nanog expression [3] | Oct4 expression [3] | carnitine palmitoyltransferase 1a (CPT1a) expression [3] | diglyceride acyltransferase-1 (DGAT1) expression [3] | diglyceride acyltransferase-2 (DGAT2) expression [3] | fatty acid synthase (FASN) expression [3] | phosphoenolpyruvate carboxykinase (PEPCK) expression [3] | effect of mutation F361A on ΔTm compared to WT [4] |
| --- | --- | --- | --- | --- | --- | --- | --- | --- | --- | --- | --- | --- | --- |
| Cc1ccc(-n2ncc3c(N4CCOCC4)nc(NCc4ccco4)nc32)cc1 [Ligand 34, N-[(furan-2-yl)methyl]-1-(4-methylphenyl)-4-(morpholin-4-yl)-1H-pyrazolo[3,4-d]pyrimidin-6-amine] | did not substantially alter | did not significantly change | not affected | significantly promoted the expression | significantly promoted the expression | significantly promoted the expression | significantly promoted the expression | significantly increased | significantly promoted the expression | no significant effect | no significant effect | upregulated | substantially decreased the ΔTm |
| O=C(Cn1cc(S(=O)(=O)c2ccccc2)c2ccccc21)N1CCc2ccccc21 [Ligand 80, 2-[3-(benzenesulfonyl)-1H-indol-1-yl]-1-(2,3-dihydro-1H-indol-1-yl)ethan-1-one] | did not substantially alter | did not significantly change | not affected | but not 80, significantly promoted the expression | – | – | but not 80, significantly promoted the expression | no effect | but not 80, significantly promoted the expression | no significant effect | no significant effect | upregulated | completely abrogated the interaction |
